The source of these data is US8637043B2, “Compositions useful as ligands for the formyl peptide receptor like 1 receptor and methods of use thereof” (Chemocentryx, Inc., priority 2001, dated 2014).

In one test the target is T1, human FPRL1 (Homo sapiens, UniProt P25090).
T1 construct: Full length cDNA encoding FPRL1 was cloned, using the polymerase chain reaction (PCR), from genomic DNA isolated from undifferentiated HL-60 cells; expressed in transfected cells; linearized FPRL1/pcDNA3.1, electroporation
T1 sequence (P25090 1-351): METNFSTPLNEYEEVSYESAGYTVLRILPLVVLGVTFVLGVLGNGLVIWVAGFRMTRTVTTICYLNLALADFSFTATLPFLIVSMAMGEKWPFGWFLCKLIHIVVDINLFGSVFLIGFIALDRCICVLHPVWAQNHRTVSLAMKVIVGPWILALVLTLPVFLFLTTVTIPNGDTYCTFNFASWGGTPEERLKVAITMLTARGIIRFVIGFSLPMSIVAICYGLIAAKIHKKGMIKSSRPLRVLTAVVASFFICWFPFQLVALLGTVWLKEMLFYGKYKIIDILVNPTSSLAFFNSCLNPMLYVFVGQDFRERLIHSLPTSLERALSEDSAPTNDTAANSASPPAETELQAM
Briefly: Migration of FPRL1-L1.2 cells. Format: cell-based. Particulars: for migration of FPRL1 expressing cells: FPRL1-L1.2 cells, ChemoTx. How it is done: (§1) Migration assays were performed on monocytes and neutrophils. Human monocytes and neutrophils (prepared as in Exampe 2) were harvested and resuspended in chemotaxis medium (CM). The CM consisted of Hank's buffered salt solution (Gibco, Mass.) containing CaCl2 (1 mM) and MgSO4 (1 mM) with added 0.1% BSA (Sigma, St. Louis, Mo.). The assays were performed in 96-well ChemoTx® microplates (Neuroprobe, Mass.). Leukotactin, MlP-1α and chemokines (CKβ8(1-99), CKβ8(25-99), CKβ8-1(1-116) or CKβ8-1(25-116), prepared as in Example 1) were added to the lower wells (final volume 29 μL), and 20 μL of cell suspension (5×10^6 cells/mL for monocytes; 2.5×10^6 cells/mL for neutrophils) added to the polycarbonate filters (5 μm pore size for monocytes; 3 μm pore size for neutrophils). After incubation for 90 min (37° C., 100% humidity, 5% CO2), cells were removed from the upper surface of the filter by scraping. Cells that migrated into the lower chamber were quantified using the Quant cell proliferation assay kit (Molecular Probes, Oreg.).
The ability of CKβ8-1 (25-116) to elicit the migration of the FPRL1 expressing cells was examined. Test conditions were as in Example 5.
The chemotactic activity of chemokines (CKβ8(1-99) and CKβ8(25-99), SHAAGtides (SEQ ID NO:1 and SEQ ID NO:2) and W peptides 1 and 2 (obtained as in Example 6) on FPRL1-L1.2 cells was determined in migration assays. The chemokines were prepared as in Example 1. The SHAAGtide sequences SEQ ID NO:1 and SEQ ID NO:2 were prepared as in Example 8. FPRL1-L1.2 cells were prepared as in Example 6.
The migration assays were performed in 96-well ChemoTx® microplates (Neuroprobe) using the protocol described in Example 5.

Another test has as its system human neutrophils. Briefly: Migration assay (ChemoTx), human neutrophils. It counts as cell-based. Particulars: 90 min, 100 nM. The protocol: as §1, with “Leukotactin, MlP-1α and chemokines (CKβ8(1-99), CKβ8(25-99), CKβ8-1(1-116) or CKβ8-1(25-116), prepared as in Example 1) were added to the lower wells (final volume 29 μL), and 20 μL of cell suspension (5×10^6 cells/mL for monocytes; 2.5×10^6 cells/mL for neutrophils) added to the polycarbonate filters (5 μm pore size for monocytes; 3 μm pore size for neutrophils).” left out
The above peptides were prepared as in previous examples.

The subject of another test is mononuclear cells. The experiment in a line: Mononuclear cell infiltration into the dermis after intradermal injection. It counts as in vivo, Rhesus macaques. The conditions noted are these: for cell infiltration, in words: summary of Table 18. The protocol:
Different amounts (8, 20, or 60 μg in 100 μl PBS) of different polypeptides (see Table 18) were injected intradermally in Rhesus macaques under anesthesia. Twenty-four and 48 hours later, 6 mm skin punch biopsies were taken using aseptic technique and then bisected. One portion of the biopsy was embedded in OCT compound, flash frozen in liquid nitrogen and stored at −70° C. The other portion was immersed in formalin and embedded in paraffin wax; subsequently, sections cut on a microtome were stained with hematoxylin and eosin and then microscopically examined for cell infiltration into the dermis (Table 18). As a negative control, monkeys were injected with PBS lacking any polypeptides.
Mononuclear cell infiltration was scored on a scale of 0 to 5:0, very mild perivascular mononuclear inflammatory infiltration throughout the dermis; 1, a mild perivascular mononuclear inflammatory infiltrate seen throughout the dermis; 2, a mild/moderate perivascular mononuclear inflammatory infiltrate seen throughout the dermis; 3, a moderate perivascular mononuclear inflammatory infiltrate seen throughout the dermis; 4, an extensive perivascular mononuclear inflammatory infiltrate seen throughout the dermis; 5, a florid perivascular mononuclear inflammatory infiltrate seen throughout the dermis. intermediate scores are indicates, e.g., “⅔” represents a score between 2 and 3.

Another test relates to dendritic cells. Briefly: Dendritic cell infiltration after intradermal injection in mice (anti-DEC-205 staining). Format: in vivo. Details: key to Dendritic cell infiltration Score / Infiltration Score: 0 = none, 1 = slight, 2 = mild, 3 = moderate, 4 = severe. From the text: The following chemokines were obtained from R&D Systems (Minneapolis, Minn.): vMCK-2, mC10, and GM-CSF. The following peptides were synthesized at Phoenix Pharmaceuticals (San Carlos, Calif.): SHAAYtide (SEQ ID NO:6), several […] MODIFIED peptides of SHAAGtide variant (SEQ ID NO:) (i.e. cyclized using the MPR-Cys linked cyclization), control peptide (SEQ ID NO:33, […]Gin Pro Gly lie Lys Arg Arg Trp Leu Met), randomly conjugated to OVA in either a 1:1 or 1:4 ratio (by MBS coupling method), and conjugated to OVA at the C-terminus (C-term, made by the addition of a cysteine), and SHAAGtide variant (SEQ ID NO:3). In three separate experiments, chemokines or peptides (2 μg or 20 μg in PBS) were injected intradermally into BALB/c or C57BI/6 mice (Jackson Laboratory; Bar Harbor, Me.). In each experiment, one mouse received an injection of PBS only as a negative control. At various times after injection, the mice were euthanized, and the area around the injection site was excised and subjected to immunohistology. Frozen sections were stained with anti-DEC-205 antibody (Bio-Whittaker Molecular Applications; Rockland, Me.) that recognizes a dendritic cell-specific molecule (Kraal et al., 1986). A relative staining number on a scale of […] was assigned to each section (0, none; 1, slight; 2, mild; 3, moderate; 4, severe).

The mark [1] stands for this setting: 60 μg intradermally, 24 hours, scale 0 (very mild) to 5 (florid).

“And” between values parts separate entries of the source, which are not always exact repeats. Equal entries are not always repeated. “Also recorded” adds a separate entry of the source. Marks after values point to notes of the source that are not given here. Ends that are not written are not given here.

MLWRRKIGPQMTLSHAAG [SEQ ID NO: 1]: the “migration of FPRL1 expressing cells” value at human FPRL1 is reported as “migrated the transfectants”. Further, in the test with human neutrophils, the migration of neutrophils result is “produced migration”.

For the molecule MLWRRKIGPQMTLSHAAY [SEQ ID NO: 6], the “Mononuclear cell infiltration score” value with mononuclear cells (8 μg, 24 hours) is 0; in the test on mononuclear cells (8 μg, 48 hours) it was 0; with mononuclear cells (20 μg, 24 hours), 2*; in the test with mononuclear cells (20 μg, 48 hours) it was 0; in the test with mononuclear cells (setting [1]), 0; in the test with mononuclear cells (60 μg, 48 hours) it was 0. The “cell infiltration, in words” value in the test on mononuclear cells is recorded as “moderately strong infiltration in one of the two animals”. Moreover, the “Dendritic cell infiltration Score” value was 2 and 3 in the test with dendritic cells (BALBc mice, 2 μg, 6 hours, listed as SHAAYtide (SEQ ID NO: 6)); 3 and 2 in the test with dendritic cells (BALBc mice, 2 μg, 30 hours, listed as SHAAYtide (SEQ ID NO: 6)); 2 and 3 in the test with dendritic cells (BALBc mice, 20 μg, 6 hours, listed as SHAAYtide (SEQ ID NO: 6)); 1 in the test on dendritic cells (C57B1/6 mice, 2 μg dose, 6 hours, 0 none, 1 slight, 2 mild, 3 moderate, 4 severe, one animal per line); 0 in the test with dendritic cells (C57B1/6 mice, 2 μg dose, 30 hours); 0 in the test on dendritic cells (C57B1/6 mice, 2 μg dose, 51 hours). In the test on dendritic cells (summary of Tables 15, 16 and 17), the “infiltration of DEC-205-labeled cells” value is listed as “excellent infiltration”.

B1: CKβ8-1(25-116): novel NH2-terminal truncated form of CKβ8-1, SEQ ID NO: 16, human recombinant chemokine (protein, listed as Homo sapiens)
chain: MLWRRKIGPQMTLSHAAGFHATSADCCISYTPRSIPCSLLESYFETNSECSKPGVIFLTKKGRRFCANPSDKQVQVCMRMLKLDTRIKTRKN
As to B1, the “Mononuclear cell infiltration score” value with mononuclear cells (20 μg, 24 hours) was 0; with mononuclear cells (20 μg, 48 hours) it was 0; with mononuclear cells (setting [1]), 0; in the test with mononuclear cells (60 μg, 48 hours), 0. Further, in the test on mononuclear cells, the “cell infiltration, in words” value is given as “no infiltration”. Moreover, the “migration of FPRL1 expressing cells” value with human FPRL1 is “migrated the transfectants”; in the test with human FPRL1 (listed as CKβ8-1 (25-116)) it was “migrated in a bell-shaped dose-dependent manner; also recorded: higher than observed with the synthetic peptides WKYMVm and WKYMVM”. In addition, in the test with human FPRL1 (FPRL1 expressing L1.2 cells, read-out: half-maximal cell migration), the EC50 worked out at 30 nM. Moreover, the migration of neutrophils result is “produced migration” in the test on human neutrophils and “robust response” in the test with human neutrophils (listed as CKβ8-1 (25-116)).
